Assay [1] deals with purified N-terminal truncated human LSD1 enzyme (aa 151-852) (Homo sapiens (Human), UniProt O60341). Description: LSD1 fluorescence coupling enzymatic assay (horseradish peroxidase/Amplex Red). The class given is biochemical. The following applies: 50 nM LSD1, 30 min pre-incubation, 10 μM histone 3.3 peptide (aa 1-21), 10-point dose-response; read-out: IC50 (nM), Inhibition of LSD1 Activity.
Method: Briefly, compounds of the present invention were solubilized in DMSO and a series of 10, three-fold serial dilutions were made for each compound in 15% DMSO. The initial starting concentration for the serial dilutions of each compound was 10 μM.
An aliquot of each serial dilution of test compound was added to a 96 well plate containing 50 nM purified N-truncated LSD1 enzyme (RBC Cat# PDM-11-350), 50 mM Tris-HCl, pH 7.5, 0.05% CHAPS and 1% DMSO in a 10 microliter reaction volume. The plate was pre-incubated at room temperature for 30 min to which 10 μM of histone 3.3 peptide (aa 1-21) was added to initiate the enzymatic reaction. The reaction mixture was incubated at room temperature for one hour. […] The IC50 value for each compound was determined from each 10-point dose-response curve using GraphPad Prism 4 software with a sigmodial dose response.

The test system of assay [2] is MV4-11 cells. Description: Inhibition of LSD1-mediated cellular proliferation, CellTiter Glo luminescence assay. The class given is cell-based, human. The following applies: Day 7, cell viability by CellTiter Glo.
Method: The MV4-11 cell line cell line was established from the blast cells of a person with biphenotypic B-myelomonocytic leukemia.
Inhibition of LSD1-mediated cellular proliferation by compounds of Formula (I) was measured in a CellTiter Glo luminescence assay (Promega Corp), which determines the number of viable cells by quantitating the amount of ATP, using a BMG LabTech CLARIOStar instrument in accordance with the manufacturer's instructions. Briefly, MV4-11 cells were plated at a density of 1000 cells/90 μl/well in 96 well culture plates and cultured in IMDM medium (Gibco) supplemented with 10% fetal bovine serum (FBS) and 1% penicillin and 1% streptomycin at 37° C. […] Control samples lacking test compound or cells were processed in parallel. The plates were incubated at 37° C. for four days and thereafter 50 μl fresh medium containing the same concentration of test compound was added. The plates were incubated for an additional three days (Day 7). A baseline measurement, as described below, was taken for a time zero point at Day 0.
At Day 7, the supernatant was removed by aspiration and the plate was allowed to equilibrate to room temperature (˜15 min). The cells were lysed using 45 μl (30 μl for Day 0) of Cell Titer Glo reagent (Promega Corp). The plates were shaken for two minutes and incubated at room temperature for 30 minutes. The degree of inhibition of cell viability was determined using a spectrophotometric readout by measuring the luminescence at 340 nm and the EC50 concentration for each compound was calculated using Graph Pad Prism 4 software.

The structures appear in SMILES notation.

Regarding `O=C(/C=C/c1ccc(CN2CCC(CN[C@@H]3C[C@H]3c3ccccc3)CC2)cc1)NS(=O)(=O)c1ccccc1` [Example 48, (E)-3-(4-((4-((((1R,2S)-2-Phenylcyclopropyl)amino)methyl)piperidin-1-yl)methyl)phenyl)-N-(phenylsulfonyl)acrylamide], the 50% inhibitory concentration (IC50) in assay [1] was 33 nM. Moreover, in assay [2] (Homo sapiens, 168 h), a half-maximal effect (EC50) was put at 9 nM.
For `CS(=O)(=O)NC(=O)/C=C/c1ccc(CN2CCC(N[C@@H]3C[C@H]3c3ccccc3)CC2)cc1` (relative stereo) [Example 2, (E)-N-(Methylsulfonyl)-3-(4-((4-(((trans)-2-phenylcyclopropyl)amino)piperidin-1-yl)methyl)phenyl)acrylamide], the IC50 in assay [1] was determined as 30 nM.
The same measure, in the same setting: the value for `CONC(=O)/C=C/c1ccc(CN2CCC(N[C@@H]3C[C@H]3c3ccccc3)CC2)cc1` (relative stereo) [Example 1, (E)-N-Methoxy-3-(4-((4-(((trans)-2-phenylcyclopropyl)amino)piperidin-1-yl)methyl)phenyl)acrylamide] was 15 nM.
Turning to `C(=C\c1ccc(CN2CCC(N[C@@H]3C[C@H]3c3ccccc3)CC2)cc1)/c1ccccc1` (relative stereo) [Example 12], in assay [1], the IC50 is 23 nM. The concentration giving a half-maximal response (EC50) in assay [2] came to 32 nM.
Consider `C(=C\c1cccc(CN2CCC(N[C@@H]3C[C@H]3c3ccccc3)CC2)c1)/c1ccccc1` (relative stereo) [Example 13, N-(trans-2-phenylcyclopropyl)-1-(3-((E)-styryl)benzyl)piperidin-4-amine], for which the half-inhibitory concentration (IC50) in assay [1] was found to be 17 nM. In addition, the EC50 in assay [2] (Homo sapiens, 168 h) came to 37 nM.
The like results for `CS(=O)(=O)NC(=O)c1ccc(CN2CCC(CN[C@@H]3C[C@H]3c3ccccc3)CC2)cc1` [Example 53, N-(Methylsulfonyl)-4-((4-((((1R,2S)-2-phenylcyclopropyl)amino)methyl)piperidin-1-yl)methyl)benzamide] were, in that order, 27 nM and 19 nM.
With `CS(=O)(=O)NC(=O)Cc1ccc(CN2CCC(N[C@@H]3C[C@H]3c3ccccc3)CC2)cc1` [Example 35, N-(Methylsulfonyl)-2-(4-((4-(((1R,2S)-2-phenylcyclopropyl)amino)piperidin-1-yl)methyl)phenyl)acetamide], the IC50 in assay [1] is 25 nM. In addition, in assay [2] (Homo sapiens, 168 h), the concentration giving a half-maximal response (EC50) is 30 nM.
As for `CS(=O)(=O)NC(=O)/C=C/c1ccc(CN2CCC(CN[C@@H]3C[C@H]3c3ccccc3)CC2)cc1` [Example 49, (E)-N-(methylsulfonyl)-3-(4-((4-((((1R,2S)-2-phenylcyclopropyl)amino)methyl)piperidin-1-yl)methyl)phenyl)acrylamide], the concentration for a half-maximal effect (EC50) in assay [2] (Homo sapiens, 168 h) was 26 nM.
As to `C(=C\c1nnn[nH]1)/c1cccc(CN2CCC(N[C@@H]3C[C@H]3c3ccccc3)CC2)c1` (relative stereo) [Example 14], in assay [1], the IC50 was 118 nM. The molecule further displayed an EC50 in assay [2] of 174 nM.
Take `CS(=O)(=O)NC(=O)c1ccc(CN2CCC(N[C@@H]3C[C@H]3c3ccccc3)CC2)cc1` [Example 34, N-(Methylsulfonyl)-4-((4-(((1R,2S)-2-phenylcyclopropyl)amino)piperidin-1-yl)methyl)benzamide]: the half-maximal inhibitory concentration (IC50) in assay [1] amounted to 3 nM. Also, the concentration for a half-maximal effect (EC50) in assay [2] (Homo sapiens, 168 h) was determined as 60 nM.
On to `CS(=O)(=O)NC(=O)/C=C/c1ccc(CN2CCC(N[C@@H]3C[C@H]3c3ccccc3)CC2)cc1` [Example 15, (E)-N-(Methylsulfonyl)-3-(4-((4-(((1R,2S)-2-phenylcyclopropyl)amino)piperidin-1-yl)methyl)phenyl)acrylamide], for which, in assay [1], the half-maximal inhibitory concentration (IC50) amounted to 10 nM.
With `CS(=O)(=O)NC(=O)Cc1ccc(CN2CCC(CN[C@@H]3C[C@H]3c3ccccc3)CC2)cc1` [Example 57], the IC50 in assay [1] is 44 nM. The molecule further displayed an EC50 in assay [2] (Homo sapiens, 168 h) of 1 nM.

Values taken from patent US10059668B2 (Mirati Therapeutics, Inc., priority 2015, dated 2018).
